Measured values as given in paper PMC10177926, “Leveraging the 3-Chloro-4-fluorophenyl Motif to Identify Inhibitors of Tyrosinase from Agaricus bisporus” (International Journal of Molecular Sciences, 2023).

molecular target: tyrosinase from Agaricus bisporus (AbTYR) (Agaricus bisporus, UniProt C7FF04); assay: diphenolase inhibition of AbTYR (L-DOPA substrate, absorbance at 475 nm); assay type: biochemical; conditions: diphenolase activity
Procedure: Mushroom tyrosinase (EC 1.14.18.1) was supplied by Merck (Cat. No. T3824). In vitro assay was performed according to the method of Mirabile et al.. Each sample (0.05 mL) at different concentrations (0.10–200 μM) was mixed with 0.5 mL of L-DOPA solution (1.25 mM) and 0.9 mL of phosphate buffer solution (pH 6.8). After a 10 min incubation at 25 °C, 0.05 mL of an aqueous solution of the enzyme was added to the mixture. […] The inhibition rate was calculated with the following mathematical equation:Inhibition % = (A − B/A) × 100 where A = absorbance of negative control and B = absorbance of test sample. Finally, IC50 values were determined by interpolation of the dose–response curves.

tyrosinase from Agaricus bisporus (AbTYR), sequence (C7FF04 2-392): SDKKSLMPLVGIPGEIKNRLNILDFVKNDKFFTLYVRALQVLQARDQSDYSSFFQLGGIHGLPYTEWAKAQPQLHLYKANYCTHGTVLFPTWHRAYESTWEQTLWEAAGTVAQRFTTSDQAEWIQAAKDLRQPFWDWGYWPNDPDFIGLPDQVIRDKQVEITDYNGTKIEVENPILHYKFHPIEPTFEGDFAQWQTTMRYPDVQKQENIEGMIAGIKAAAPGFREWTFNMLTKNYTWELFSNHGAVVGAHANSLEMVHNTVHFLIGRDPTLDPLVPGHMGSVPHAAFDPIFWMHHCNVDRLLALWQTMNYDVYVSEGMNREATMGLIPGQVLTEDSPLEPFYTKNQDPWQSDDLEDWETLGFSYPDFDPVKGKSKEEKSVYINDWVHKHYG

SMILES	AbTYR inhibitory effect, result in words
Nn1c(SCc2ccc(F)cc2Cl)nnc1-c1ccncc1 [3c, 3-((2-Chloro-4-fluorobenzyl)thio)-5-(pyridin-4-yl)-4H-1,2,4-triazol-4-amine]	inhibitory effects dramatically disappeared

tested on: not given; assay: not given; conditions: not given

SMILES	melting point
c1ccc(SCSc2ccccc2)cc1 [4b, Phenylsulfanylmethylsulfanylbenzene]	34 to 35 °C
O=C(c1ccc(Cl)cc1Cl)N1CCN(Cc2ccc(F)c(Cl)c2)CC1 [1d, (4-(3-Chloro-4-fluorobenzyl)piperazin-1-yl)(2,4-dichlorophenyl)methanone]	121 to 124 °C
O=C(CN1CCN(Cc2ccc(F)c(Cl)c2)CC1)N1CCN(c2ccc(O)cc2)CC1 [2c, 2-(4-(3-Chloro-4-fluorobenzyl)piperazin-1-yl)-1-(4-(4-hydroxyphenyl)piperazin-1-yl)ethanone]	165 to 168 °C
CC(C(=O)N1CCN(c2ccc(O)cc2)CC1)N1CCN(Cc2ccc(F)c(Cl)c2)CC1 (stereo not shown) [2d, 2-(4-(3-Chloro-4-fluorobenzyl)piperazin-1-yl)-1-(4-(4-hydroxyphenyl)piperazin-1-yl)propan-1-one]	172 to 174 °C
Nn1c(SCc2ccc(F)cc2Cl)nnc1-c1ccncc1 [3c, 3-((2-Chloro-4-fluorobenzyl)thio)-5-(pyridin-4-yl)-4H-1,2,4-triazol-4-amine]	171 to 172 °C
O=C(c1cc(F)ccc1C(F)(F)F)N1CCN(Cc2ccc(F)c(Cl)c2)CC1 [1e, (4-(3-Chloro-4-fluorobenzyl)piperazin-1-yl)(5-fluoro-2-(trifluoromethyl)phenyl)methanone]	133 to 135 °C
Nn1c(SCc2ccc(F)c(Cl)c2)nnc1-c1ccncc1 [3b, 3-(3-Chloro-4-fluorobenzylthio)-5-(pyridin-4-yl)-4H-1,2,4-triazol-4-amine]	164 to 165 °C
Nn1c(SCc2ccc(F)c(Cl)c2)nnc1-c1ccccc1 [3d, 3-(3-Chloro-4-fluorobenzylthio)-5-phenyl-4H-1,2,4-triazol-4-amine]	164 to 166 °C
O=C(c1cc2ccccc2s1)N1CCN(Cc2ccc(F)c(Cl)c2)CC1 [1f, Benzo[b]thiophen-2-yl(4-(3-chloro-4-fluorobenzyl)piperazin-1-yl)methanone]	111 to 113 °C
